Laboratory results from PubChem BioAssay AID504562 (Southern Research Specialized Biocontainment Screening …, 2011).
Active and inactive are the calls of the source. The rule behind the calls is not given here. Residues, ends and D or L forms follow the SMILES beside them. *: point of attachment. Cbz = O=C(OCc1ccccc1)*

Test system: not listed separately
Experiment: mammalian cell cytotoxicity, dose response, cytotoxicity control for M. tuberculosis growth inhibitor project, purified and synthesized compounds, set 2 (AID 504562)
Settings: mammalian cell viability, cytotoxicity counter-screen; at 100 µM (top of the series)

With `O=C(CSc1nc2ccccc2c(=O)[nH]1)NCc1ccc(Cl)cc1` as the compound, how does the viability read?
The viability was 89.5% (inactive).

With `COC(=O)C(C)Oc1ccc(-c2nccc(-c3ccccn3)n2)cc1` (stereo unspecified) as the compound, how does the viability read?
The viability was 100% (inactive).

With `Cc1nc(SCC(=O)NC2CCCCC2)[nH]c(=O)c1C` as the compound, how does the viability read?
Its viability is 91.7% (inactive).

For `Nc1c(C(=O)NC2CCCCC2)nsc1C(=O)OCC(=O)NC1CCCCC1`, which viability is on record?
The viability was 93.5% (inactive).

For `CCc1ccc(/C=C2/C(=O)N(C)C(=S)N2CC(=O)OC)s1`, which viability is on record?
The viability was 101% (inactive).

Which viability does the source give for `COC(=O)c1ccc(CNc2c(N3CCCC3)c(=O)c2=O)cc1` here?
Its viability is 97.3% (inactive).

With `O=C(CSc1nc2ccccc2c(=O)[nH]1)NC1CCCCC1` as the compound, how does the viability read?
The viability was 97.5% (inactive).

Which viability does the source give for `CCOC(=O)COn1c2c(c3c4no[n+]([O-])c4ccc31)CCCC2` here?
Its viability is 87.9% (inactive).

For `CC1CCN(C(=O)C2CCN(c3nnc(-n4cccc4)s3)CC2)CC1`, which viability is on record?
Its viability is 92.8% (inactive).

For `COC(=O)CCc1nc2c(C#N)c(-c3ccc(Cl)cc3)ccn2n1`, which viability is on record?
Its viability is 99.6% (inactive).

For `CC[N+](C)(CC)CCCCOc1ccc2c(c1)C(=O)c1cc(OCCCC[N+](C)(CC)CC)ccc1-2`, which viability is on record?
Its viability is 101% (inactive).

With `COc1cc(NC(=O)C/C(C)=N/NC(=O)c2ccccn2)c(OC)cc1Cl` as the compound, how does the viability read?
The viability was 103% (inactive).

With `Cc1ccc2ccc3ccc(C)nc3c2n1` as the compound, how does the viability read?
The viability was 68.3% (inactive).

With `CC(=NCc1ccc2c(c1)OCO2)C1=C(O)c2ccccc2C1=O` as the compound, how does the viability read?
Its viability is 88.7% (inactive).

For `COC(=O)C1CC(=O)N(c2ccc(OCc3ccccc3Cl)cc2)C1` (stereo unspecified), which viability is on record?
Its viability is 100% (inactive).

For `CCOC1OC(=O)C(Cl)=C1Nc1ccccc1C` (stereo unspecified), which viability is on record?
Its viability is 91.1% (inactive).

With `CCOC(=O)COc1ccc(/C=C2\NC(=S)N(CC)C2=O)cc1` as the compound, how does the viability read?
The viability was 91.2% (inactive).

Which viability does the source give for `O=C(/C=C\c1cccs1)N1CCN(Cc2ccc3c(c2)OCO3)CC1` here?
Its viability is 91.2% (inactive).

For `O=C1C(Br)=Cc2cccc3cccc1c23`, which viability is on record?
Its viability is 89.2% (inactive).

With `Cc1ccc(NC(=O)C2C3/C=C\CCCCC32)cc1C` (stereo unspecified) as the compound, how does the viability read?
The viability was 97% (inactive).

Test system: mammalian cell viability, cytotoxicity counter-screen
Experiment: as above
Settings: not given

With `CC(C)NC(=O)c1sc(=S)n2c1[nH]c(=O)c1ccc(C(=O)NCCc3ccc(Cl)cc3)cc12` as the compound, how does the CC50 read?
The CC50 was 68.8 µM.

With `S=c1nc[nH]c2nc[nH]c12` as the compound, how does the CC50 read?
Its CC50 is 38.1 µM.

For `CCOC(=O)c1ccc(NC(=O)Cn2ncc(Cl)c(Cl)c2=O)cc1`, which CC50 is on record?
Its CC50 is 7.7 µM.

For `CNc1nc(SCc2ccccc2Cl)nc2c1CCCC2`, which CC50 is on record?
Its CC50 is 46.1 µM.

Which CC50 does the source give for `Cc1ccc2c(c1)c(C1=c3ccccc3=NC1=O)c(O)n2C` here?
Its CC50 is 14.3 µM.

For `Cc1ccc(C(=O)N/N=C(/CC(=O)c2cccs2)C(F)(F)F)cc1`, which CC50 is on record?
The CC50 was 31.7 µM.

Which CC50 does the source give for `COC(=O)c1cc(=O)n(-c2ccc(F)cc2)c(=Nc2ccc(F)cc2)s1` here?
Its CC50 is 20.8 µM.

For `COC(=O)C(Nc1nc(SCC(=O)NC2CCCCC2)nc2ccccc12)c1ccccc1` (stereo unspecified), which CC50 is on record?
Its CC50 is 88 µM.

For `CCC(C)Nc1ccc(NC(C)CC)cc1` (stereo unspecified), which CC50 is on record?
Its CC50 is 16.5 µM.

For `CCOC(=O)CNC(=O)[C@H](Cc1ccccc1)NC(=O)OCc1ccccc1` (Cbz-Phe-Gly-OEt), which CC50 is on record?
The CC50 was 68.9 µM.

With `Cc1cccc(/C=C/C(=O)c2ccc([N+](=O)[O-])o2)c1` as the compound, how does the CC50 read?
The CC50 was 53.1 µM.
